The text below walks through data of patent US20220339178A1, “COMPOSITIONS AND METHODS FOR COGNITIVE PROTECTION OF POLLINATORS AGAINST PESTICIDES” (priority 2019, published 2022).

Experiment [1] concerns bumblebee Bombus impatiens. Nature of the experiment: Olfactory conditioning of PER in bumblebees: rutin vs imidacloprid. It is filed as in vivo. How it is done: One colony of the bumblebee Bombus impatiens (Koppert Inc) was kept in laboratory conditions. Bees received pollen inside the nests and foraged to a 1M sugar-water feeder outside of the nest. Bees were collected while on the feeder and iced anesthetized to then be yolked restrained in plastic pipettes. Bees were maintained in the pipettes for the entire duration of the experiment (five days).
Control: 1M sugar water (20 μL) fed twice a day for three consecutive days;
Rutin: 1 μM Rutin (Sigma-Aldrich R5143) diluted in 1M sugar water (20 μL) fed twice a day for three days before training on the fourth day;
Imid: fed with 1M sugar water (20 μL) twice a day for three days and fed with 20 μL of 5 nM Imidacloprid (Prime Source LLC, IN, USA) in 1M sugar water 2 hours before training on the fourth day; and
Rutin+Imid: Bees fed with 1 μM Rutin diluted in 1M sugar water (20 μL) for three days before training and receiving 20 μL of 5 nM Imidacloprid in 1M sugar water 2 hours before training on the fourth day.
All bees were trained using olfactory conditioning of the proboscis extension response (PER). Briefly, bees were exposed to a presentation of 1-nonanol (Sigma-Aldrich) for 10 s. After 7 s of the onset of the odor presentation, the antenna was stimulated with 1.5 M sugar-water to elicit the PER. Following the PER, the bee was allowed to drink sugar-water for 3 s. Each paired presentation was considered a training trial and each individual received eleven training trials with an average intertrial interval of 10 minutes. After training, all bees were fed 20 μL of 1M sugar water and maintained in plastic boxes for 24 h until the retention test. […] Twenty-four hours after the last training trial the bees were presented with the conditioned odor for 10 s.
Performance for each individual was quantified as the number of conditioned PER responses across the trials. Thus, for each bee a score between zero and ten (0-10) was recorded.
Multiple comparisons were then run using Wilcoxon-tests between groups using single or two-tailed t-tests depending upon predictions (bees on all treatments were predicted to perform better than bees in the Imidacloprid group). Error due to multiple comparisons was controlled using the False Discovery Rate method (FDR-two stage sharpened method). In all cases corrected p-values are presented.
Acquisition learning (i.e. learning curves) was compared between bees fed with imidacloprid vs. protected bees using Repeated measures.
Retention was quantified as a nominal variable (yes/no). Data were compared across treatments using a Chi-square test, followed by multiple comparisons between pairs of treatments. Error due to multiple comparisons was controlled using the FDR as indicated above. In all cases corrected p-values are presented.
Latency was quantified as a continuous variable between 0.5 s and 10 s. Data were compared across treatments using an ANOVA following a Log transformation to normalize the distribution (Shapiro-Wilk W Test after log transformation: W=0.99, p=0.55), followed by multiple comparisons between groups using two-tailed t-test. Error due to multiple comparisons was controlled using the FDR method as indicated above. In all cases corrected p-values are presented.

In experiment [2] the test system is Honeybees (Apis mellifera scutellata). Kind of experiment: Classical conditioning of the proboscis extension response (PER): learning, 24 h memory retention, latency; flavonoids vs imidacloprid. It is filed as in vivo. The note with it: for memory retention, proportion difference relative to Control bees (Adjusted Wald test): conditioned PER after 24 h; for latency of response during learning acquisition relative to Control bees / learning scores relative to Control bees: honey bees; for learning scores relative to Control bees: 8 trials, score 0-7, quercetin 6.6 mM or rutin 1 mM once a day for three days, imidacloprid 1.16 nM 20 μL 1.5 h before training. How it is done: Honeybees (Apis mellifera scutellata) were captured from established hives at the Apiary of the Pontificia Universidad Javeriana (Bogota, Colombia). Foragers were collected while leaving to forage between 8:00 am and 10:00 am (Matsumoto et al., J Neurosci Methods. 211(1):159-67. 2012). Bees were maintained in individual plastic chambers under laboratory conditions (photoperiod followed seasonal pattern; relative humidity: 63%; temperature: 18° C.). Food was provided once a day in a volume of 20 μL and varied in composition according to experimental treatments.
Control (2M sugar water): fed once a day (20 μL) for three consecutive days;
Quercetin (6.6 mM quercetin (Sigma-Aldrich: Q4951)-sucrose-water with DMSO 1% (Sigma-Aldrich: D8418): fed once a day for three days;
Rutin (1 mM rutin (Sigma-Aldrich R5143)-sucrose-water with DMSO 1%: fed once a day for three days;
Imidacloprid (1.16 nM Imidacloprid (Bayer)-sucrose-water: fed as a single dose (20 μL) 1.5 h before training;
Quercetin-Imidacloprid: bees received the quercetin treatment (see above) and were fed Imidacloprid 1.5 h before training; and
Rutin-Imidacloprid: bees received the rutin treatment (see above) and were fed Imidacloprid 1.5 h before training.
Bees were trained using classical conditioning of the proboscis extension response (PER), a broadly used method to study learning and memory in bees. Briefly, bees received a soft current of clean air for 15 seconds to allow bees to accommodate. Then a soft current of 1-hexanol (Sigma-Aldrich: 471402) was injected for 10 seconds. Six seconds after injection of 1-hexanol, one of the antennae was stimulated with sucrose water (50% w/w), which leads to the reflexive extension of the proboscis, and the bee was allowed to drink for 4 seconds. Thus, the reward and the stimulus overlapped for four seconds. This sequence, recognized as a training trial, was repeated eight times. Time was determined using a metronome (2 Hz). Memory retention was tested 24 hours after the eight training trials. […] 12 bees were trained each session. Training was conducted by an experimenter blind to treatment.
Learning was assessed from the total number of conditioned responses across the eight trials. Thus, each bee received a learning score between 0-7 (by definition, bees cannot show a learned response at the first trial). After 24 h, memory retention was assessed as the response to the presentation of 1-hexanol without a sucrose reward. Latency of response was quantified as the time between the onset of 1-hexanol stimulation and the onset of a response that led to a full extension of proboscis. Only bees being responsive to sucrose water across all training trials and the memory retention test were considered for analyses. Learning scores were compared across treatments using a Mann-Whitney test as data were not normally distributed (Shapiro-Wilk W test for the hypothesis that the data is from a Normal distribution: P<0.05 for all treatments). Comparisons of the learning score of bees across all treatments relative to Control bees were conducted using the Steel method adjusted as one or two-tailed tests. Additional post hoc comparisons were performed between Imid and Quer+Imid bees and between Imid and Rut+Imid bees. Memory retention was compared across groups using an overall Chi-Square test and independent tests for planned comparisons were performed using adjusted Wald tests for proportions. In all cases error due to multiple comparisons was controlled using the False Discovery Rate one stage method and adjusted p-values (q-values) are presented (Benjamini & Hochberg, Journal of the Royal Statistical Society. Series B (Methodological), 57(1):289-300. 1995; Pike, N., Methods in Ecology and Evolution, 2(3):278-282. 2011). All analyses were conducted using JMP v.14.0 (SAS Institute Inc). […]

As to `O=[N+]([O-])NC1=NCCN1Cc1ccc(Cl)nc1` [Imidacloprid], the “learning across trials relative to Rutin+Imidacloprid bees” value in experiment [1] (acquisition curves, repeated measures MANOVA) was “significantly lower”. Also, in experiment [1] (bumblebees), the “latency of response relative to Control bees” value is “significantly longer”, the “latency of response relative to bees fed with Rutin” value is reported as “significantly longer”, the “latency of response relative to bees prophylactically fed with Rutin” value was “not different” and the “memory retention after 24 h relative to Control group” value was “significantly lower”. In addition, in experiment [1] (bumblebees), the “memory retention after 24 h relative to Rutin group” value was “significantly lower” and the “memory retention after 24 h relative to Rutin+Imidacloprid group” value is on record as “significantly lower”. The “performance score relative to Control bees” value in experiment [1] (bumblebees, score 0-10, rutin 1 μM twice a day for three days, imidacloprid 5 nM 20 μL 2 hours before training) is “significantly lower”. In experiment [2] (24 h retention), the “odds of remembering for Control bees relative to Imid bees” value was 9.1 times and the “probability of exhibiting a conditioned PER after 24 h relative to Control bees” value was “significantly lower”. Moreover, in experiment [2], the “memory retention, proportion difference relative to Control bees (Adjusted Wald test)” value is recorded as 0.49; the “latency of response during learning acquisition relative to Control bees” value is reported as “not significantly different from Control”; the “learning scores relative to Control bees” value is recorded as “significantly lower”. Besides, the “bees exhibiting a conditioned PER after 24 h” value in experiment [2] (retention test 24 h after training) is on record as 20%.

With `C[C@@H]1O[C@@H](OC[C@H]2O[C@@H](Oc3c(-c4ccc(O)c(O)c4)oc4cc(O)cc(O)c4c3=O)[C@H](O)[C@@H](O)[C@@H]2O)[C@H](O)[C@H](O)[C@H]1O` [Rutin], in experiment [2], the “memory retention, proportion difference relative to Control bees (Adjusted Wald test)” value is recorded as −0.14; the “latency of response during learning acquisition relative to Control bees” value was “not significantly different from Control”; the “learning scores relative to Control bees” value is “significantly higher learning scores”. In experiment [2] (honey bees prophylactically fed flavonoid for three days, then imidacloprid 1.5 h before training), the “learning scores relative to bees in the Imid group” value is “significantly higher learning scores”.
